Measurements: US10420758B2, “Indolinyl-sulfonamide inhibitors of tankyrase and methods of use thereof” (The Board of Regents of the University of Texas System, priority 2015, dated 2019)

Columns and labels:
Test in all cases: PARP profiling, parsylation of immobilized histone
Type in all cases: biochemical
PARP2 = PARP2 (Homo sapiens, UniProt Q9UGN5)
Protocol: (§1) Performed by BPS Bioscience Inc., San Diego by following the BPS PARP or TNKS assay kit protocols. The enzymatic reactions were conducted in duplicate at room temperature for 1 hr in a 96 well plate coated with histone substrate. […] of reaction buffer (Tris.HCl, pH 8.0) contains NAD^+, biotinylated NAD^+, activated DNA, recombinant PARP enzyme and 10 μM of the test compound. […] After enzymatic reactions, 50 μL of Streptavidin-horseradish peroxidase was added to each well and the plate was incubated at room temperature for an additional 30 min. 100 μL of developer reagents were added to wells and luminescence was measured using a BioTek Synergy™ 2 microplate reader.

PARP12 = target: T1, PARP12 (Homo sapiens, UniProt Q9H0J9)
T1 sequence (Q9H0J9 1-701): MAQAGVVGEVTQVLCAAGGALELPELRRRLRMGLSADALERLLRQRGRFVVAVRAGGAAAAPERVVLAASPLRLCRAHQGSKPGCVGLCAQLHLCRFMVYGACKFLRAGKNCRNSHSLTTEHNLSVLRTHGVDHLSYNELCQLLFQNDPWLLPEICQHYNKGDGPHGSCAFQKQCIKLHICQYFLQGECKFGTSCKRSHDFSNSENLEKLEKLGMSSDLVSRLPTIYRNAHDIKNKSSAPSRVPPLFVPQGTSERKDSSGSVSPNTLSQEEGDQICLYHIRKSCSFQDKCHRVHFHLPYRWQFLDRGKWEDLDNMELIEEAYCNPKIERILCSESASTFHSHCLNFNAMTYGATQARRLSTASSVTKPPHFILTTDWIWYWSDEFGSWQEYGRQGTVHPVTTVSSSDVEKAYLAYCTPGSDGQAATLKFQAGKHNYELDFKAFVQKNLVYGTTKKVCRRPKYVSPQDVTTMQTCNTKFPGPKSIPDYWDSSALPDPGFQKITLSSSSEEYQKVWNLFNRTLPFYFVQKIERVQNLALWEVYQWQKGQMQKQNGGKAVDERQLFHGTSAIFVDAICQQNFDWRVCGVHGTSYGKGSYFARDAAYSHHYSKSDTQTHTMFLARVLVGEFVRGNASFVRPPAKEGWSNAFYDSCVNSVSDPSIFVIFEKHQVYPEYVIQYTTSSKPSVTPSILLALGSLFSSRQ
Protocol: as §1

PARP8 = target: T2, PARP8 (Homo sapiens, UniProt Q8N3A8)
T2 sequence (Q8N3A8 1-854): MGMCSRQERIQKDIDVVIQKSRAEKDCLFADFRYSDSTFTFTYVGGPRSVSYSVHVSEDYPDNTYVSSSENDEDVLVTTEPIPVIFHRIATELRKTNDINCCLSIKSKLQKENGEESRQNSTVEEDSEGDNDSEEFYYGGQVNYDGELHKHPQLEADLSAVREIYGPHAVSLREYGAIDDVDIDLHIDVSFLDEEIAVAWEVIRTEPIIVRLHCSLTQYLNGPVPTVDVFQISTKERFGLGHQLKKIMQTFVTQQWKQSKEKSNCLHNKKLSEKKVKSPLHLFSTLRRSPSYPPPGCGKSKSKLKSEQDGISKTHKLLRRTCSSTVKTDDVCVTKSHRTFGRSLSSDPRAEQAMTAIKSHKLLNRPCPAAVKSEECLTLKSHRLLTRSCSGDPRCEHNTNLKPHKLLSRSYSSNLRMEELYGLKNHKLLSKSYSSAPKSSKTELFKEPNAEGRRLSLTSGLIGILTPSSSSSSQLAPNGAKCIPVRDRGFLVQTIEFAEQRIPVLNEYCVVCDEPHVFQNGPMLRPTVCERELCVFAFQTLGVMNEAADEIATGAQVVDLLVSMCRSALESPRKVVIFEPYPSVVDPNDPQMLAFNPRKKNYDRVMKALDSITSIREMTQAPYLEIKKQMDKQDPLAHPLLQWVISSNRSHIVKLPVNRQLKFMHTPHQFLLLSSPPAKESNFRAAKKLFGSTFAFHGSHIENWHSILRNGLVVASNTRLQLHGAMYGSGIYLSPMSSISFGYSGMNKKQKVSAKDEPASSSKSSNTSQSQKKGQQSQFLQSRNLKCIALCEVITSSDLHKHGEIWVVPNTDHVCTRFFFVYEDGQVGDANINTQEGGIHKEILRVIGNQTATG
Protocol: as §1

PARP3 = target: T3, PARP3 (Homo sapiens, UniProt Q9Y6F1)
T3 sequence (Q9Y6F1 1-533): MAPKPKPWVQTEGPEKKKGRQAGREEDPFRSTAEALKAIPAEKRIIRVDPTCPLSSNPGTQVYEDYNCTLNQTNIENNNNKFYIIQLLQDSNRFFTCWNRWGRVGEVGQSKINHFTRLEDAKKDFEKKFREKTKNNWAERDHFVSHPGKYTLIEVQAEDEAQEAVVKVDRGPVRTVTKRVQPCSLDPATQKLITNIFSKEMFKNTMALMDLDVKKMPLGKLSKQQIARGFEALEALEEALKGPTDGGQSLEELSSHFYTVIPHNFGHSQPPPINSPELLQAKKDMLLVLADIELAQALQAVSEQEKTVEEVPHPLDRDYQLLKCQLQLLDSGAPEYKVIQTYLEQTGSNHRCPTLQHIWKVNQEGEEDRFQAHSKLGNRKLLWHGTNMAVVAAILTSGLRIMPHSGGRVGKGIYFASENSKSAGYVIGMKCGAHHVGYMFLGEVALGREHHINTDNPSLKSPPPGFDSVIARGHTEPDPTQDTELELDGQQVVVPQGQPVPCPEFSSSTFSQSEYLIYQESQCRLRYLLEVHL
Protocol: as §1

Sequence of PARP2 (Q9UGN5 whole entry): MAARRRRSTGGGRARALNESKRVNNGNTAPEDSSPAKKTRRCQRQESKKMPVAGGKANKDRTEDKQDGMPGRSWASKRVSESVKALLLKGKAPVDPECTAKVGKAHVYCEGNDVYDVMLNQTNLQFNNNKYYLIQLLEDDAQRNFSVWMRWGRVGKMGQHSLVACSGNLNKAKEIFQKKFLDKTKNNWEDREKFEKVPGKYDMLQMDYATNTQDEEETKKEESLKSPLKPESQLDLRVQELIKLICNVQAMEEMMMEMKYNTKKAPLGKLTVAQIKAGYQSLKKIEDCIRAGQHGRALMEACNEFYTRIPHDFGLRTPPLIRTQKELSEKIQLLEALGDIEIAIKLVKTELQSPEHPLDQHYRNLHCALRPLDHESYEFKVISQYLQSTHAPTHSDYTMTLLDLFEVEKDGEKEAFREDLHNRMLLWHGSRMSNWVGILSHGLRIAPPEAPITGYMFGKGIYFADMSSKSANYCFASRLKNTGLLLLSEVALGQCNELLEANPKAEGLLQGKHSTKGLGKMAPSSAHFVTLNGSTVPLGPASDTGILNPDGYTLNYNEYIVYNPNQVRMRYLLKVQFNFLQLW

For `O=C(Nc1cccc2cccnc12)c1ccc(N2C(=O)[C@@H]3[C@H](C2=O)[C@@H]2C=C[C@H]3C2)cc1` [IWR-1], the “% inhibition” value (PARP2; IWR compounds 10 μM) was 5%, the “% inhibition” value (PARP12; IWR compounds 10 μM) was 11% and the “% inhibition” value (PARP8; IWR compounds 10 μM) was 1%. The “% inhibition” value (PARP3; IWR compounds 10 μM) was 6%.
Work on `CCN(C(=O)C1CCN(S(=O)(=O)c2cc3c(cc2Br)CCN3C(C)=O)CC1)c1cccc(C)c1` [IWR-8] yielded an inhibition at 10 µM (PARP2; IWR compounds 10 μM) of 3%, an inhibition at 10 µM (PARP12; IWR compounds 10 μM) of 14% and an inhibition at 10 µM (PARP8; IWR compounds 10 μM) of 0%. It also gave an inhibition at 10 µM (PARP3) of 11%.
With `O=C(c1cc(Cc2n[nH]c(=O)c3ccccc23)ccc1F)N1CCN(C(=O)C2CC2)CC1` [Olaparib] the inhibition at 0.02 µM (PARP2) was 100%, the inhibition at 0.02 µM (PARP12) was 84% and the inhibition at 0.02 µM (PARP8) was 96%. It also gave an inhibition at 0.02 µM (PARP3) of 100%.
